Data as given in PubChem BioAssay (NCI).
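A five-concentration, 48-hour dose response in 96-well plates underlies each endpoint, interpolated linearly between surrounding concentrations. The concentration for full growth arrest is given as TGI.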

Assays:
Assay in all cases: DTP human tumour cell line panel, 48 h
NCI-H226 lung = system: NCI-H226 lung
SNB-75 CNS = system: SNB-75 CNS
NCI-H460 lung = system: NCI-H460 lung
HCC-2998 colon = system: HCC-2998 colon
TK-10 renal = system: TK-10 renal
BT-549 breast = system: BT-549 breast
K-562 leukemia = system: K-562 leukemia
SW-620 colon = system: SW-620 colon
SN12C renal = system: SN12C renal
MCF7 breast = system: MCF7 breast
SF-295 CNS = system: SF-295 CNS
KM12 colon = system: KM12 colon
HS 578T breast = system: HS 578T breast
T-47D breast = system: T-47D breast
UACC-257 melanoma = system: UACC-257 melanoma
A498 renal = system: A498 renal
MALME-3M melanoma = system: MALME-3M melanoma
SF-539 CNS = system: SF-539 CNS
A549 NSCLC = system: A549 NSCLC
CCRF-CEM leukemia = system: CCRF-CEM leukemia

Row | SMILES | TGI (NCI-H226 lung) | TGI (SNB-75 CNS) | TGI (NCI-H460 lung) | TGI (HCC-2998 colon) | TGI (TK-10 renal) | TGI (BT-549 breast) | TGI (K-562 leukemia) | TGI (SW-620 colon) | TGI (SN12C renal) | TGI (MCF7 breast) | TGI (SF-295 CNS) | TGI (KM12 colon) | TGI (HS 578T breast) | TGI (T-47D breast) | TGI (UACC-257 melanoma) | TGI (A498 renal) | TGI (MALME-3M melanoma) | TGI (SF-539 CNS) | TGI (A549 NSCLC) | TGI (CCRF-CEM leukemia)
1 | CC(=O)OCC1OC(SC2=N/C(=C\c3cc4c(=O)c5ccccc5sc4s3)C(=O)N2c2ccccc2)C(OC(C)=O)C(OC(C)=O)C1OC(C)=O (centres undefined) | > 100 µM | > 100 µM | > 100 µM | > 100 µM | > 100 µM | > 100 µM | > 100 µM | > 100 µM | > 100 µM | > 100 µM | > 100 µM | > 100 µM | > 100 µM | > 100 µM | > 100 µM | > 100 µM | > 100 µM |  |  | 
2 | O=C(/C=C/c1ccccc1)/C=N/N1C(=S)N(c2ccccc2)C(=Nc2ccccc2)C1=Nc1ccccc1 | > 100 µM |  | > 100 µM | > 100 µM | > 100 µM | > 100 µM | > 100 µM | > 100 µM | > 100 µM | > 100 µM | > 100 µM | > 100 µM | > 100 µM | > 100 µM | > 100 µM |  | > 100 µM | > 100 µM | > 100 µM | 
3 | COC(=O)c1ccccc1CC1Cc2ccc3c(c2C1=O)CCC3 (centres undefined) | > 100 µM | 80.7 µM | > 100 µM | > 100 µM | > 100 µM | > 100 µM | > 100 µM | > 100 µM | > 100 µM | 90.3 µM | > 100 µM | > 100 µM | > 100 µM | > 100 µM | > 100 µM |  | > 100 µM | > 100 µM | > 100 µM | > 100 µM
4 | COc1cccc(-c2c(C#N)c(N)nc3c2CCS(=O)(=O)c2ccc(C)cc2-3)c1 | > 100 µM | > 100 µM | > 100 µM | > 100 µM | > 100 µM | > 100 µM | > 100 µM | > 100 µM | > 100 µM |  |  | > 100 µM | > 100 µM | > 100 µM | > 100 µM | > 100 µM | > 100 µM |  | > 100 µM | > 100 µM
5 | CCN(CC)CCC(=O)c1ccc(Oc2ccc(Cl)cc2)cc1 |  | 25.5 µM | 29.2 µM | 34.2 µM | 33.1 µM | 32.6 µM | > 100 µM | 44.4 µM | 31.2 µM | 55.9 µM | 32.4 µM | 32.2 µM | 59 µM | 44.3 µM | 28.6 µM | 31.7 µM | 34.8 µM | 42.1 µM | > 100 µM | 58.1 µM
6 | O=[N+]([O-])c1ccc(-c2csc3nc(-c4ccccc4)nn23)cc1 | > 100 µM | > 100 µM |  | > 100 µM | > 100 µM | > 100 µM | > 100 µM | > 100 µM | > 100 µM | > 100 µM | > 100 µM | > 100 µM | > 100 µM |  | > 100 µM | > 100 µM | > 100 µM |  | > 100 µM | > 100 µM
7 | CCOC(=O)c1ccc(N=C2C(=S)N(c3ccc(C(=O)OCC)cc3)C(=N)N2/N=C/c2ccccc2)cc1 | 31.4 µM |  | > 100 µM | 58 µM | 62.2 µM | 80.2 µM | > 100 µM |  | 41.3 µM | 28.5 µM | 70.4 µM | 31.2 µM | > 100 µM | 63.1 µM |  |  | 49.1 µM | 51.2 µM | > 100 µM | 
8 | N=c1oc2c(Cl)cc(Cl)cc2cc1C(=O)Nc1cccc2ccccc12 | 66.2 µM | 10.9 µM | 62.1 µM | > 59.6 µM | 4.71 µM | > 100 µM | > 53.3 µM | 27.1 µM | 12.8 µM | > 100 µM | 96.9 µM | > 100 µM | > 53.2 µM | 25.2 µM | > 100 µM | 23.7 µM | > 100 µM |  | > 100 µM | 14.4 µM
9 | COCCN(C(C)=O)C1CCC2(SCCS2)c2[nH]c3ccccc3c21 (centres undefined) | > 100 µM | > 100 µM | > 100 µM | > 100 µM | > 100 µM | > 100 µM | > 100 µM | > 100 µM | > 100 µM | > 100 µM | > 100 µM | > 100 µM | > 100 µM |  | > 100 µM | > 100 µM | > 100 µM | > 100 µM | > 100 µM | > 100 µM
10 | CC(=O)N1C(c2[nH]c3ccccc3c2-c2ccccc2)CCN1c1ccccc1 (centres undefined) | > 10 µM | > 10 µM | > 10 µM | > 10 µM | > 10 µM | > 10 µM | > 10 µM | > 10 µM | > 10 µM | > 10 µM | > 10 µM |  | > 10 µM | > 10 µM | > 10 µM |  | > 10 µM | > 10 µM | > 10 µM | > 10 µM
11 | COc1ccc2nc(-n3c(/C=C/c4ccccc4O)nc4ccccc4c3=O)sc2c1 | > 100 µM | > 100 µM | > 100 µM | > 100 µM | > 100 µM | > 100 µM | 59.6 µM | > 100 µM |  | > 100 µM | > 100 µM | > 100 µM | > 100 µM |  | > 100 µM | > 100 µM | > 100 µM |  | > 100 µM | > 100 µM
12 | CCC1C(C#N)=C(N)OC2=C1C(=O)CC(C)(C)C2 (centres undefined) |  |  | > 100 µM | > 100 µM | > 100 µM | > 100 µM |  | > 100 µM | > 100 µM | > 100 µM | > 100 µM | > 100 µM | > 100 µM |  | > 100 µM | > 100 µM | > 100 µM | > 100 µM | > 100 µM | > 100 µM
13 | COC12OC3(C4OC41)C(C(=O)O[C@H]3CO[Si](C)(C)C(C)(C)C)C2C(=O)Oc1ccccc1 (some centres undefined) | > 100 µM | > 100 µM | > 100 µM | > 100 µM | > 100 µM | > 100 µM | > 100 µM | > 100 µM | > 100 µM | > 100 µM | > 100 µM | > 100 µM | > 100 µM | > 100 µM | > 100 µM | > 100 µM | > 100 µM |  | > 100 µM | > 100 µM
